Three compounds from patent publication US8329645B2, “Polymyxin derivatives and uses thereof” (priority 2008, dated 2012) can be followed below.

≈ marks a conversion by molar mass, not a printed value. Where a SMILES comes first, the peptide text is derived from it. Bridges are numbered along the chain shown (N, C = ends). [ ]: non-standard residue; d: D form. The star is where a group is joined. Decanoyl = CCCCCCCCCC(=O)*; Octanoyl = CCCCCCCC(=O)*; Dab = NCC[C@H](N)C(=O)O

Data set [1] has as its system E. coli IH3080. Description: Bactericidal activity in PBS (% survival). In kind it is cell-based, Escherichia coli. To be noted: solution age fresh. The protocol: For the measurement of the antibacterial activity of aqueous solutions of NAB 739 methanesulfonate sodium, three different solutions were made: 1) A solution (1 mg/ml) made in 0.9% NaCl immediately prior to the experiment, 2) a solution (1 mg/ml) made in 0.9% NaCl 24 h prior to the experiment and kept at 37° C., 3) a solution (1 mg/ml) made in 0.9% NaCl 48 h prior to the experiment and kept at 37° C. A freshly made solution of NAB 739 acetate served as the control compound.
The test bacterium was E. coli IH3080. It was grown in LB broth (LB broth Lennox, Difco, BD, Sparks, Md., U.S.A.) at 37 Celsius in a rotary shaker into early logarithmic growth phase, washed with PBS, and resuspended in PBS to approx. 10e9 cells/ml. PBS was inoculated with approx. 500 CFU (colony forming units) of bacteria per ml and pipetted in 0.2 ml aliquots into wells of a microtiter plate. The plates already contained increasing concentrations of NAB 739 methanesulfonate or the control compound in 0.020 ml of 0.9% NaCl. […] The plate was incubated overnight at 37° C. and the developed colonies were counted.

Another data set in a line: in vivo. To be noted: male, Sprague-Dawley, rat, iv, 1 mg/kg.
In another data set the test system is K. pneumoniae ATCC13883. In words: Growth inhibition around wells on LB agar plates. In kind it is cell-based, Klebsiella pneumoniae. The protocol:
(§1) From an overnight-grown culture of IH3080 on LB agar, a suspension of approx. 10^8 cells/ml was prepared in 0.9% NaCl. Aliquots of this suspension were then pipetted on the agar plates and the plates were gently shaken to spread the suspension evenly on the entire surface of the plate. Thereafter, the unabsorbed part of the suspension was removed by using a Pasteur pipette. After the surface had dried, small wells (diameter, 2 mm) were drilled on the plates (five wells per plate) by using a sterile sharp-edged narrow metal tube, single-use pipette tip, and vacuum suction. An alternative method used a swab to spread the inoculum. Samples (4 μl and 10 μl) of the peptide solution in 0.9% NaCl (at concentrations of 1 μg/ml and 0.1 μg/ml) were then pipetted to the wells and the sample fluids were allowed to absorb. Controls included 0.9% NaCl solution without the compound to be tested. The plates were then incubated for 18 h at 37° C. whereafter the diameters of growth inhibition zones around each well were measured; the diameter of the well itself was not reduced. Finally, the diameters were converted to surface areas of growth inhibition (in square mm).
(§2) The susceptibility of eleven Gram-negative bacterial strains (nine different species) to NAB734 and polymyxin B was compared by using the susceptibility determination method described in Example 2. The strains included those belonging to the species of Serratia marcescens and Proteus mirabilis, both species generally known to be resistant to polymyxin. Furthermore, the susceptibility determination was also performed by using the Gram-positive bacterium, Staphylococcus aureus, also generally known to be polymyxin-resistant. Ten of the strains originated from ATCC (American Type Culture Collection, Manassas, Va., U.S.A.), and one from CCUG (Culture Collection of University of Gothenburg, Sweden). The source of E. coli IH3080 has been described in Example 2. Polymyxin B sulfate was from Sigma-Aldrich (St. Louis, Mo., USA).

A further data set has as its system K. pneumoniae CCUG45421. Description: Growth inhibition around wells on LB agar plates. Format: cell-based, Klebsiella pneumoniae. The protocol:
as §1, §2

Another data set relates to E. cloacae ATCC23355. In words: Growth inhibition around wells on LB agar plates. In kind it is cell-based, Enterobacter cloacae. To be noted: 4 μg. The protocol:
as §1, §2

Another data set concerns C. freundii ATCC8090. Description: Growth inhibition around wells on LB agar plates. In kind it is cell-based, Citrobacter freundii. The protocol:
as §1, §2

In the next data set the test system is S. marcescens ATCC8100. Description: Growth inhibition around wells on LB agar plates. Format: cell-based, Serratia marcescens. The protocol: as §1, §2
The subject of another data set is P. mirabilis ATCC29906. Description: Growth inhibition around wells on LB agar plates. In kind it is cell-based, Proteus mirabilis. The protocol: as §1, §2
The subject of a further data set is S. aureus ATCC 25923. In words: Growth inhibition around wells on LB agar plates. Format: cell-based, Staphylococcus aureus. The protocol: as §1, §2
Data set [2] concerns E. coli IH3080. Description: E-test MIC with or without NAB7061 (4 μg/ml), Mueller-Hinton agar. In kind it is cell-based, Escherichia coli. In a few lines:
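E-strip MIC determination, run as instructed by the manufacturer.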

The next data set relates to E. coli CCUG 41421. The protocol:
Polymyxin B sulfate (Sigma-Aldrich, St. Louis, Mo., USA) was used as a control. […] The bacterial test strains originated from ATCC (10 strains), CCUG (11 strains), and NCTC (3 strains). Fourteen (14) strains (the F-strains) were purchased from Mobidiag Ltd., Helsinki, Finland.
The inocula were prepared by adjusting the bacterial suspensions to a density equivalent to OD546 nm˜0.3 (˜10^8 CFU/ml˜0.5 McFarland) the yeast suspension to a density equivalent to OD546 nm˜0.75 (˜2×10^7 CFU/ml)._The suspensions were diluted to 10^7 CFU/ml. The plates were inoculated by using a Denley Multipoint Inoculator, 1 μl per spot corresponding to approx. 10^4 CFU/spot. Plates were incubated for 16-20 hours at 35° C.

Experimental for in vivo: Four rats (Sprague-Dawley, male) were studied.
The samples were analyzed using liquid chromatography and mass spectrometry with electrospray ionization interface (LC/electrospray ionization MS).

As a reminder, the Vd is a proportionality between amount in the body and measured concentration, not a real space. Broadly, the clearance is the volume of plasma or blood freed of the substance per unit of time. Lower therefore signals a low capacity for elimination. Broadly, the half-life is the time in which the quantity being followed falls by half. Lower therefore signals rapid decline. Consider `CCCCCCCC(=O)N[C@H](C(=O)N[C@H](CO)C(=O)N[C@H]1CCNC(=O)[C@H]([C@@H](C)O)NC(=O)[C@H](CCN)NC(=O)[C@H](CCN)NC(=O)[C@H](CC(C)C)NC(=O)[C@@H](Cc2ccccc2)NC(=O)[C@H](CCN)NC1=O)[C@@H](C)O` [NAB 739, OA-Thr-DSer-cy[Dab-Dab-DPhe-Leu-Dab-Dab-Thr-]] (Octanoyl-T[dS][Dab][Dab][dF]L[Dab][Dab]T; lactam 3-C), for which the “% survival at 37 degrees centigrade” value in the data set with E. coli IH3080 [1] (1 μg/ml) came to 21%; with E. coli IH3080 [1] (2 μg/ml), 2%; with E. coli IH3080 [1] (4 μg/ml) it was 0%. Besides, the CL renal in the data set “in vivo” (plasma and urine) is 0.53 ± 0.3 mL/min/kg. In “in vivo” (plasma), the Vd was 0.222 ± 0.0205 L/kg. The compound further yielded a clearance in the data set “in vivo” (plasma) of 2.63 ± 0.54 mL/min/kg. In addition, the half-life in the data set “in vivo” (plasma) amounted to 1.15 ± 0.365 h. The dose excreted in the data set “in vivo” (urine) stood at 19.4 ± 7.38%.
For the compound Polymyxin B [reference compound], the “growth inhibition around a well” value in the data set with K. pneumoniae ATCC13883 (4 μg) worked out at 79 square millimeters; in the data set with K. pneumoniae ATCC13883 (10 μg), 113 square millimeters; with K. pneumoniae CCUG45421 (4 μg), 95 square millimeters; with K. pneumoniae CCUG45421 (10 μg) it was 133 square millimeters; in the data set with E. cloacae ATCC23355, 95 square millimeters; with C. freundii ATCC8090 (4 μg), 95 square millimeters. Moreover, the “growth inhibition around a well” value with C. freundii ATCC8090 (10 μg) amounted to 154 square millimeters; with S. marcescens ATCC8100 (4 μg), 0 square millimeters; in the data set on S. marcescens ATCC8100 (10 μg), 0 square millimeters; in the data set with P. mirabilis ATCC29906 (4 μg), 0 square millimeters; with P. mirabilis ATCC29906 (10 μg), 0 square millimeters; in the data set with S. aureus ATCC 25923 (4 μg) it was 0 square millimeters. Also, the “growth inhibition around a well” value in the data set with S. aureus ATCC 25923 (10 μg) was 0 square millimeters. Moreover, the “Sensitization factor to antibiotic (MIC without / with 4 μg/ml of NAB 7061)” value in the data set with E. coli IH3080 [2] was found to be 2.
Usually MIC stands for the least concentration at which growth counts as inhibited. A lower MIC goes with greater potency. In turn, `CCCCCCCCCC(=O)N[C@H](C(=O)N[C@H](CO)C(=O)N[C@H]1CCNC(=O)[C@H]([C@@H](C)O)NC(=O)[C@H](CCN)NC(=O)[C@H](CCN)NC(=O)[C@H](CC(C)C)NC(=O)[C@@H](Cc2ccccc2)NC(=O)[C@H](CCN)NC1=O)[C@@H](C)O` [NAB 740, DA-Thr-DSer-cy[Dab-Dab-DPhe-Leu-Dab-Dab-Thr-]] (Decanoyl-T[dS][Dab][Dab][dF]L[Dab][Dab]T; lactam 3-C) displayed an MIC in the data set with E. coli CCUG 41421 of 2 µg/mL (≈ 1.81 µM).
